US20040043403A1, “Process for determining the biological activity of epidermal growth factor receptor tyrosine kinase inhibitors” (priority 2000, published 2004)

Experiments:
Format in all cases: cell-based, human
[1] = system: A431 cells; experiment: UniGEM 1 cDNA array expression profile of A431 cells; settings: 24 hours
Experimental: (§1) The following tissue culture cells are chosen because of their EGFR expression status (Table 1). EGFR expression is measured by Western blotting, using anti-EGFR monoclonal antibodies from Transduction Labs (Lexington, Ky.). The cell lines are obtained from the ATCC (Rockville, […].). The cells are cultured in 5% CO2 at 37° C.
(§2) 20 million tissue culture cells (about 80% confluent) or 200 million WBCs are incubated for 2 or 24 h in culture medium containing 3 μM of an EGFR tyrosine kinase inhibitor or 0.03% DMSO. Total RNA from cell pellet is isolated using the RNeasy kit (Qiagen). mRNA is isolated using the oligotex mRNA purification kit (Qiagen). The quality of the obtained mRNA is tested by real time RT-PCR using beta-Actin primers (PE Applied Biosystems) with an amplicon size of 300 base pairs (bp). The total RNA is used as a reference to calculate the amount of mRNA-enrichment in the oligotex purified samples.
(§3) Probes for the UniGEM hybridization are synthesized by Incyte Genomics (Palo Alto, Calif., USA). For each probe 200 ng mRNA (50 ng/μl) is shipped in dry ice. The results are analyzed using the Expressionist Software Package provided by GeneData.
(§4) Expression profiles (UniGEM V arrays) of 4 tumor cell lines with different EGFR expression status (A431, NCI-H596, NCI-H520 and MDA-MB-468) and of WBCs upon exposure of cells to 3 μM of COMPOUND A for 2 or 24 h are analyzed. As control, cells treated with DMSO for the same time period are used. […] The cDNA array hybridization is repeated with the UniGEM 1 array using the same mRNA (Table 3).

[2] = system: A431 cells; experiment: UniGEM V cDNA array expression profile of A431 cells; settings: 3 μM, 24 hours, RNA from Experiment 1
Experimental: as §1, §2, §3, §4

[3] = system: A431 cells; experiment: Western blot of clusterin induction in A431 cells
Experimental: (§5) An EGFR tyrosine kinase inhibitor is dissolved in DMSO to obtain a 10 mM stock solution. The stock solution is further diluted in culture medium to final concentrations of 10 nM to 3 μM. 3.5 million cells/100 mm dish/12 ml culture medium are incubated for 24 h in 5% CO2 at 37° C. The medium is replaced with medium containing the EGFR tyrosine kinase inhibitor or DMSO. Cells are incubated for 4 to 32 h. The frozen pellets are lysed in 500 μl of lysis buffer (50 mM Tris-HCl pH 7.5, 1% Sodium Dodecyl Sulfate (SDS)). To shear genomic DNA, the cell lysates are processed in a FastPrep instrument for 20 sec at a speed rating of 4, using the green […] tubes (Bio101#6040-6010). Protein concentrations are determined according to the PIERCE-method (BCA Protein Assay, Reagent A and B). Protein concentration of lysates is adjusted to 1 μg/μl with lysis buffer. 4 parts of cell lysates are mixed with 1 part of 5 fold concentrated Laemmli buffer, the lysates are stored at -20° C. 40 μl of cell lysate is heated for 3 min to 95° C. and directly loaded on to 10% or 15% SDS-PAGE gels. The gels are run at 130 V for 90 min under standard conditions. The separated proteins are semi-dry blotted on to a PVDF membrane (Immobilon-P, Millipore #IPVH 202 00) for 70 min with 45 mA per blot. Immediately after the transfer the blots are incubated in Blotto A (5% skim milk powder in Tris Buffered Saline (TBS)/0.05% Tween-20) for 1 h at room temperature on a rotating platform. The blots are then washed three times in TBS/0.05% Tween-20. The blots are incubated for 1 h with 0.2 μg/ml of e.g. goat anti-human clusterin (C-18) antibody (Santa Cruz, sc-6419) in Blotto A for 1.5 h at room temperature on a rotating platform. The control blots are incubated with 0.2 μg/ml of mouse anti-human-actin (C-2) antibody (Santa Cruz, sc-8432). The blots are washed three times with TBS/0.05% Tween-20. […]

[4] = system: NCI-H596; experiment: Western blot of clusterin induction in NCI-H596 cells; settings: NCI-H596 cells (moderate levels of EGFR), 300 nM, 24 h, vs 0.03% DMSO
Experimental: as §5, with “blot.” for “blot. Immediately after the transfer the blots are incubated in Blotto A (5% skim milk powder in Tris Buffered Saline (TBS)/0.05% Tween-20) for 1 h at room temperature on a rotating platform. The blots are then washed three times in TBS/0.05% Tween-20. The blots are incubated for 1 h with 0.2 μg/ml of e.g. goat anti-human clusterin (C-18) antibody (Santa Cruz, sc-6419) in Blotto A for 1.5 h at room temperature on a rotating platform. The control blots are incubated with 0.2 μg/ml of mouse anti-human-actin (C-2) antibody (Santa Cruz, sc-8432). The blots are washed three times with TBS/0.05% Tween-20.”

## C[C@@H](Nc1ncnc2[nH]c(-c3ccc(O)cc3)cc12)c1ccccc1 [COMPOUND A, (R)-6-(4-hydroxy-phenyl)-4-[(1-phenyl-ethyl)-amino]-7H-pyrrolo[2,3-d]pyrimidine]
[1]; 3 μM, RNA from Experiment 1
  Gene induction, Micro Array UniGEM 1: Acute phase serum amyloid A protein: 4.4
  Gene induction, Micro Array UniGEM 1: Cathepsin H: 2.2
  Gene induction, Micro Array UniGEM 1: Caveolin: 3.4
  Gene induction, Micro Array UniGEM 1: Complement component 3 (C3): 3.1
  Gene induction, Micro Array UniGEM 1: Complement cytolysis inibitor (Clusterin): 2.7
  Gene induction, Micro Array UniGEM 1: DNA binding protein inhibitor ID-3: 2.1
  Gene induction, Micro Array UniGEM 1: Extracellular protein S1-5: 3.3
  Gene induction, Micro Array UniGEM 1: TGF-beta induced gene: 2.1
  Gene induction, Micro Array UniGEM 1: TRAIL: 3.0
  Gene induction, Micro Array UniGEM 1: VAC-beta (annexin VIII): 3.0
[1]; GB Acc. No. AA010487, 3 μM, versus DMSO treated cells, negative numbers: repressed genes
  Differential Expression (Balanced): Human D-type cyclin (CCND2) mRNA {IM359412}: −8.2
[1]; GB Acc. No. AA025124, 3 μM, versus DMSO treated cells
  Differential Expression (Balanced): ESTs {IM365120}: 2.7
[1]; GB Acc. No. AA025750, 3 μM, versus DMSO treated cells
  Differential Expression (Balanced): Human HE4 mRNA for extracellular protease {IM366323}: 2.6
[1]; GB Acc. No. AA026089, 3 μM, versus DMSO treated cells
  Differential Expression (Balanced): Human mRNA for precursor of epidermal growth factor receptor {IM469272}: 2.8
[1]; GB Acc. No. AA029438, 3 μM, versus DMSO treated cells
  Differential Expression (Balanced): Human cyclin-dependent protein kinase mRNA {IM366824}: 2.8
[1]; GB Acc. No. AA030000, 3 μM, versus DMSO treated cells
  Differential Expression (Balanced): Human extracellular protein (S1-5) mRNA {IM470007}: 3.3
[1]; GB Acc. No. AA035156, 3 μM, versus DMSO treated cells
  Differential Expression (Balanced): ESTs {IM471869}: 3.0
[1]; GB Acc. No. AA039353, 3 μM, versus DMSO treated cells, negative numbers: repressed genes
  Differential Expression (Balanced): Human nucleotide-binding protein mRNA; c {IM376052}: −3.5
[1]; GB Acc. No. AA039628, 3 μM, versus DMSO treated cells, negative numbers: repressed genes
  Differential Expression (Balanced): ESTs {IM485336} contains Alu repetitive elements: −6.8
[1]; GB Acc. No. AA040600, 3 μM, versus DMSO treated cells, negative numbers: repressed genes
  Differential Expression (Balanced): Human 5′-AMP-activated protein kinase; g {IM376178}: −4.1
[1]; GB Acc. No. AA041250, 3 μM, versus DMSO treated cells
  Differential Expression (Balanced): Human mRNA for pancreatic carcinoma marker {IM376296} (Trop-2): 3.0
[1]; GB Acc. No. AA041549, 3 μM, versus DMSO treated cells
  Differential Expression (Balanced): Human complement component 3 (C3) gene {IM485717}: 3.1
[1]; GB Acc. No. AA046102, 3 μM, versus DMSO treated cells
  Differential Expression (Balanced): Human annexin VIII mRNA; complete cds. {IM376634} (VAC-beta): 3.0
[1]; GB Acc. No. AA047243, 3 μM, versus DMSO treated cells
  Differential Expression (Balanced): Human mRNA for caveolin {IM488533}: 3.4
[1]; GB Acc. No. AA057694, 3 μM, versus DMSO treated cells, negative numbers: repressed genes
  Differential Expression (Balanced): Fibronectin {IM512287}: −8.8
[1]; GB Acc. No. AA057780, 3 μM, versus DMSO treated cells
  Differential Expression (Balanced): ESTs {IM377004}: 2.7
[1]; GB Acc. No. AA057802, 3 μM, versus DMSO treated cells
  Differential Expression (Balanced): TransformIng growth factor-beta induced gene product (BIGH3): 2.1
[1]; GB Acc. No. AA058337, 3 μM, versus DMSO treated cells
  Differential Expression (Balanced): Human mRNA for cathepsin H (E.C.3.4.22.1) {IM489348}: 2.2
[1]; GB Acc. No. H03907, 3 μM, versus DMSO treated cells, negative numbers: repressed genes
  Differential Expression (Balanced): Human fibronectin gene extra type III re {IM151144}: −6.9
[1]; GB Acc. No. H09077, 3 μM, versus DMSO treated cells, negative numbers: repressed genes
  Differential Expression (Balanced): ESTs {IM46265}: −21.9
[1]; GB Acc. No. H17614, 3 μM, versus DMSO treated cells, negative numbers: repressed genes
  Differential Expression (Balanced): Human ribosomal protein L5 pseudogene mRNA {IM50482}: −3.6
[1]; GB Acc. No. H18621, 3 μM, versus DMSO treated cells, negative numbers: repressed genes
  Differential Expression (Balanced): ESTs {IM172005}: −3.1
[1]; GB Acc. No. H25546, 3 μM, versus DMSO treated cells
  Differential Expression (Balanced): Human acute phase serum amyloid A protein {IM161456}: 4.4
[1]; GB Acc. No. H54629, 3 μM, versus DMSO treated cells
  Differential Expression (Balanced): Human TNF-related apoptosis inducing ligand TRAIL {IM203132}: 4.0
[1]; GB Acc. No. M25915, 3 μM, versus DMSO treated cells
  Differential Expression (Balanced): Human complement cytolysis inhibitor (CLI) mRNA; complete cds (Clusterin): 2.7
[1]; GB Acc. No. N53767, 3 μM, versus DMSO treated cells
  Differential Expression (Balanced): ESTs {248032}: 2.6
[1]; GB Acc. No. R13994, 3 μM, versus DMSO treated cells
  Differential Expression (Balanced): Rat N-syndecan mRNA {IM26677}: 2.9
[1]; GB Acc. No. R36450, 3 μM, versus DMSO treated cells, negative numbers: repressed genes
  Differential Expression (Balanced): Human fibronectin (fn) 3′ coding region {IM136798}: −4.7
[1]; GB Acc. No. R39436, 3 μM, versus DMSO treated cells
  Differential Expression (Balanced): ESTs {IM23605}: 2.6
[1]; GB Acc. No. T52813, 3 μM, versus DMSO treated cells, negative numbers: repressed genes
  Differential Expression (Balanced): PUTATIVE LYMPHOCYTE G0/G1 SWITCH PROTEIN 2 {IM67939}: −3.3
[1]; GB Acc. No. T54672, 3 μM, versus DMSO treated cells
  Differential Expression (Balanced): ESTs {IM73785}: 2.6
[1]; GB Acc. No. T59122, 3 μM, versus DMSO treated cells
  Differential Expression (Balanced): ESTs {IM74546}: 2.9
[1]; GB Acc. No. T76993, 3 μM, versus DMSO treated cells, negative numbers: repressed genes
  Differential Expression (Balanced): Human mitosin mRNA; complete cds. {IM113765}: −3.0
[1]; GB Acc. No. W46413, 3 μM, versus DMSO treated cells
  Differential Expression (Balanced): DNA-BINDING PROTEIN INHIBITOR ID-3 {IM323946}: 2.1
[1]; GB Acc. No. W95433, 3 μM, versus DMSO treated cells, negative numbers: repressed genes
  Differential Expression (Balanced): Human nuclear orphan receptor LXR-alpha {IM357775}: −3.0
[2]
  Gene induction, Micro Array UniGEM V: Acute phase serum amyloid A protein: 3.3
  Gene induction, Micro Array UniGEM V: Cathepsin H: 2.4
  Gene induction, Micro Array UniGEM V: Complement component 3 (C3): 3.3
  Gene induction, Micro Array UniGEM V: Complement cytolysis inibitor (Clusterin): 6.6
  Gene induction, Micro Array UniGEM V: DNA binding protein inhibitor ID-3: 2.6
  Gene induction, Micro Array UniGEM V: Extracellular protein S1-5: 2.2
  Gene induction, Micro Array UniGEM V: TGF-beta induced gene: 2.7
  Gene induction, Micro Array UniGEM V: TRAIL: 4.0
  Gene induction, Micro Array UniGEM V: VAC-beta (annexin VIII): 2.2
[3]; A431 cells (high levels of EGFR), 300 nM, 24 h, vs 0.03% DMSO
  Clusterin induction, Western blot (FIG. 4): strong clusterin expression signals
[3]; A431 cells, 10 nM to 1 μM, 24 h, signals increase with concentration
  Concentration at which the 43 kDa clusterin signals reach a maximum (FIG. 2): 300 nM
[3]; A431 cells, 300 nM, 4, 8, 16, 24 and 32 h
  Time course of clusterin protein induction (FIG. 3): continuous increase of clusterin signal from 16 h to 32 h
[4]
  Clusterin induction, Western blot (FIG. 4): no significant clusterin induction
